Test results published in patent US12416018B2, “Regulation of gene expression by aptamer-mediated modulation of alternative splicing” (MEIRAGTX GENE REGULATION LIMITED, priority 2015, dated 2025).

Assays:
Type in all cases: cell-based
xpt-G15 double cassette = assay: Guanine dose response of luciferase expression, xpt-G15 double
Experimental: (§1) Constructs were made using Golden Gate cloning strategy (NEB). […] Luciferase activity was assayed as described in Example 5.

[1] = system: xpt-G17 containing cassette; assay: Guanine dose response of luciferase expression, single xpt-G17 cassette; conditions: single copy xpt-G17 cassette
Experimental: as §1

[2] = system: anti-KDR antibody production in HEK 293 cells; conditions: 500 μM guanine
Experimental: Xpt-guanine aptamer with the following sequence: cactcatataat[…]cgact atgggtg (SEQ ID NO.: 10), was used to construct a riboswitch. Oligos containing the sequence of guanine aptamer and hairpin stem with 4 nucleotide 5′ overhang were synthesized (IDT), annealed and then ligated to BsaI-digested DHFR-acceptor vector. HEK 293 cells were transfected as described in Example 1. Four hours after transfection, the media was aspirated, and new media with or without 500 μM guanine was added. Luciferase expression was assayed 20 to 24 hrs after guanine treatment as described in Example 1 and Example 4. HepG2, AML12, RD and C2C12 (ATCC) were cultured using the protocol recommended by ATCC. The intron-exon-intron cassette containing the xpt-G17 riboswitch (SEQ ID NO.: 15) was inserted in the leader peptide sequences of the anti-KDR antibody gene and into the Stul site in mouse erythropoietin gene using Gibson cloning strategy (NEB). Constructs containing mouse erythropoietin (Epo) or anti-KDR antibody were transfected into HEK 293 cells. Four hour after transfection, the media was aspirated, and new media with or without 500 μM guanine was added. Supernatants were subjected to ELISA assay for the production of either anti-KDR antibody or the production of mouse Epo (R&D Systems).

[3] = system: EGFP expression in HEK 293 cells; assay: Flow cytometry / imaging of EGFP with regulatory cassettes in HEK 293 cells; conditions: stably transfected HEK 293, 500 μM guanine
Experimental: The intron-mtDHFR-aptamer-intron cassette was PCR amplified and cloned using Golden Gate cloning strategy (NEB) into pEGFP-C1 vector. To obtain a cell line stably expressing EGFP with riboswitch, HEK-293 cells were electroporated with 20 ng of plasmid DNA. Forty eight hours after electroporation, cell culture was selected with 800 μg/ml G418 for 2 weeks for cells that stably express the cassette. Cells were trypsinized and cell suspension was subjected to flow cytometric analysis of intensity of GFP fluorescence using a Guava EasyCyte 8HT machine. The resulting data was analyzed using GuavaSoft2.2.2.
as §1

| Molecule | EC50 for xpt-G15 double relative to single xpt-G17 (times lower) (xpt-G15 double cassette; xpt-G15 double vs xpt-G17) | EC50 (xpt-G15 double cassette; xpt-G15 double, luciferase) | EC50 [1] | induced antibody expression as percent of control construct containing the Con 1 intron sequences [2] | time after guanine treatment at which fluorescence was detected [3] |
| --- | --- | --- | --- | --- | --- |
| Nc1nc2nc[nH]c2c(=O)[nH]1 [guanine] | 5 times | 43 µM | 206 µM | – | – |
| xpt-G17: intron-exon-intron cassette containing the xpt-G17 guanine riboswitch, SEQ ID NO: 15, inserted in various target genes (nucleic acid, xpt-G17 riboswitch) DNA: GTGAGTCTATGGGACCCTTGATGTTTTCTTTCCCCTTCTTTTCTATGGTTAAGTTCATGTCATAGGAAGGGGAGAAGTAACAGGGTACACATATTGACCAAATCAGGGTAATTTTGCATTTGTAATTTTAAAAAATGCTTTCTTCTTTTAATATACTTTTTTGTTTATCTTATTTCTAATACTTTCCCTAATCTCTTTCTTTCAGGGCAATAATGATACAATGTATCATGCCGAGTAACGCTGTTTCTCTAACTTGTAGGAATGAATTCAGATATTTCCAGAGAATGAAAAAAAAATCTTCAGTAGAAGGTAATGTATAATCGCGTGGATATGGCACGCAAGTTTCTACCGGGCACCGTAAATGTCCGACTACATTACGCACCATTCTAAAGAATAACAGTGATAATTTCTGGGTTAAGGCAATAGCAATATTTCTGCATATAAATATTTCTGCATATAAATTGTAACTGATGTAAGAGGTTTCATATTGCTAATAGCAGCTACAATCCAGCTACCATTCTGCTTTTATTTTATGGTTGGGATAAGGCTGGATTATTCTGAGTCCAAGCTAGGCCCTTTTGCTAATCATGTTCATACCTCTTATCTTCCTCCCACAG | – | – | – | about 40% | 6 h |
